In patent publication US9839634B2 (priority 2012, dated 2017):
Like-named read-outs stand apart in the source and are kept apart here.

Experiments:
[1] = system: Staphylococcus aureus ATCC12600; format: cell-based
Experimental: Spontaneous resistance frequencies in Staphylococcus aureus were determined by plating defined numbers of cells of Staphylococcus aureus ATCC12600 (1×10^8-1×10^12 cfu/plate) on Mueller-Hinton agar containing rifampin, myxopyronin B, or both, and counting numbers of colonies after 14 h at 37° C. Experiments were performed using (a) rifampin at 1×, 2×, or 4× the minimum inhibitory concentration of rifampin administered individually; (b) myxopyronin B at lx, 2×, or 4× the minimum inhibitory concentration of myxopyronin B administered individually; or (c) both rifampin at 1×, 2×, or 4× the minimum inhibitory concentration of rifampin administered individually and myxopyronin B at 1×, 2×, or 4× the minimum inhibitory concentration of myxopyronin B administered individually. All experiments were performed four times, using four different starting cultures.

[2] = system: Escherichia coli D21f2tolC; format: cell-based; conditions: 2xMIC; for resistance rate per generation: MSS-MLE
Experimental: Spontaneous resistance frequencies in Escherichia coli were determined by plating defined numbers of cells of Escherichia coli D21f2tolC (1×10^8-1×10^12 cfu/plate) on LB agar containing rifampin, myxopyronin B, or both, and counting numbers of colonies after 24 h at 37° C. Experiments were performed using (a) rifampin at 2× the minimum inhibitory concentration of rifampin administered individually; (b) myxopyronin B at 2× the minimum inhibitory concentration of myxopyronin B administered individually; or (c) both rifampin at 2× the minimum inhibitory concentration of rifampin administered individually and myxopyronin B at 2× the minimum inhibitory concentration of myxopyronin B administered individually. All experiments were performed at least five times, using at least five different starting cultures. Resistance rates and 95% confidence intervals were calculated using the Ma-Sandri-Sarkar Maximum Likelihood Estimator (MSS-MLE; [Ma, W, Sandri, GvH., Sarkar, S. (1992. ) J. Appl. Probab. 29, 255-267; Sarkar, S., Ma, W., Sandri, GvH. (1992) Genetica 85, 173-179]) as implemented on the Fluctuation Analysis Calculator (FALCOR; http://www.keshaysingh.org/protocols/FALCOR.html; [Hall, B., Ma, C., Liang, P., Singh, K (2009) Bioinformatics 25, 1564-1565]). Sampling correction was performed as in [Stewart, F., Gordon, D., Levin, B. (1990) Genetics 124, 175-185; Jones, M. (1993) Mutat. Res. 292, 187-189].

| Compound | spontaneous resistance frequency ([1]; 2xMIC) | spontaneous resistance frequency ([1]; 1xMIC) | spontaneous resistance frequency ([1]; 4xMIC) | spontaneous resistance frequency ([1]; mean of 1x, 2x, 4xMIC) | spontaneous resistance frequency [2] | resistance rate per generation [2] |
| --- | --- | --- | --- | --- | --- | --- |
| CCc1c(Cl)c(O)c(Cl)c(O)c1C(=O)O[C@H]1[C@H](O)[C@H](OC)[C@H](OC/C2=C\C=C\C[C@H](O)/C(C)=C/[C@H](CC)[C@@H](O[C@@H]3OC(C)(C)[C@@H](OC(=O)C(C)C)[C@H](O)[C@@H]3O)/C(C)=C/C(C)=C/C[C@@H]([C@@H](C)O)OC2=O)O[C@@H]1C [lipiarmycin A3] | 3×10^−8 | – | – | – | – | – |
| CCCC/C(C)=C/C=C(\C)C(=O)c1c(O)cc([C@H](C)CC/C=C/NC(=O)OC)oc1=O [myxopyronin B] | 7 × 10^−8 | 4 × 10^−8 | 7 × 10^−8 | 6×10^−8 | 8×10^−10 | 3×10^−10 per generation |
| CO[C@H]1/C=C/O[C@@]2(C)Oc3c(C)c(O)c4c(O)c(c(/C=N/N5CCN(C)CC5)c(O)c4c3C2=O)NC(=O)/C(C)=C\C=C\[C@H](C)[C@H](O)[C@@H](C)[C@@H](O)[C@@H](C)[C@H](OC(C)=O)[C@@H]1C [rifampin] | 6×10^−8 | 5 × 10^−8 | 6 × 10^−8 | 6×10^−8 | 4×10^−9 | 1×10^−9 per generation |
